Data set [1] relates to HBV (pHBV1.3).
The test system of data set [2] is HBV genotypes A‒D. Kind of data set: Antiviral activity across HBV genotypes A‒D in Huh7. It counts as cell-based. The following applies: Hepatitis B virus, Huh-7, read-out: IC50 across HBV genotypes.
Data set [3] has as its target Cp149 protein (Hepatitis B virus genotype D subtype ayw, UniProt P03146). Put plainly: biochemical. The following applies: read-out: inhibition of capsid formation.
For data set [4], the system named is HBV. Put plainly: HBVcircle transfection system in Huh7 cells. It counts as cell-based, Hepatitis B virus. The settings on record: 0.1-200 μmol/L, 48 h.
A short description of data set [5]: in vivo. Further details: species or system ICR mouse.
In data set [6] the test system is HBV. Put plainly: HBV infection of HepG2-NTCP cells, secreted HBeAg by ELISA. (In general: ELISA stands for enzyme-linked immunosorbent assay.)
In data set [7] the test system is wild type HBV (pHBV 1.3). Kind of data set: microbe, parasite or virus in culture. It counts as cell-based. The settings on record: read-out: HBeAg IC50.
The test system of data set [8] is ETV-resistant HBV (rtL180M + A181C + M204V). Kind of data set: microbe, parasite or virus in culture. It counts as cell-based. The following applies: Hepatitis B virus.
The test system of data set [9] is wild-type HBV (genotype C). Kind of data set: microbe, parasite or virus in culture. The data set is classed as cell-based. The settings on record: Hepatitis B virus.
Data set [10] concerns HBV. The following applies: cited from earlier work.
Data set [11] deals with HBcAg (Hepatitis B virus genotype D subtype ayw, UniProt P03146). It counts as cell-based.
[12] abbreviates: Huh-7, read-out: HBeAg IC50, rt180M181C204V.

Like-named read-outs stand apart in the source and are kept apart here.

Chain of HBcAg (P03146 whole entry): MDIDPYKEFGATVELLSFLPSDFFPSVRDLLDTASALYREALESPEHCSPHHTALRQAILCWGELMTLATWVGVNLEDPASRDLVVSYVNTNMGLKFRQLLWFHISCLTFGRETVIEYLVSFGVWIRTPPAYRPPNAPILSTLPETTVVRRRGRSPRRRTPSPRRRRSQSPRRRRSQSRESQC
Chain of Cp149 protein (P03146 1-149): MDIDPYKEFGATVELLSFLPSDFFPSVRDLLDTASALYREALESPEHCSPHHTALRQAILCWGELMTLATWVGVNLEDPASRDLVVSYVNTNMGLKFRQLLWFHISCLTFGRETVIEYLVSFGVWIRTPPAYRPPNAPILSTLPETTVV

On to `COc1ccc(Cc2nc(NC(=O)C34CC5CC(CC(C5)C3)C4)n(C)c2Cc2ccc(OC)c(OC)c2)cc1` [11a, (Z)-N-(5-(3,4-Dimethoxybenzyl)-4-(4-methoxybenzyl)-1-methyl-1,3-dihydro-2H-imidazole-2-ylidene)adamantane-1-carboxamide], for which the “HBV DNA vs control group” value in data set [1] (50 mpk b.i.d., intraperitoneal) is given as “no statistical difference”. Further, the “serum HBeAg and HBsAg levels” value in data set [1] (50 or 100 mpk b.i.d.) is “None of these treatments altered serum HBeAg and HBsAg levels”. Besides, the “reduction of HBV DNA in plasma” value in [1] (100 mpk b.i.d., intraperitoneal, Day 5) was found to be 4 fold. The “antiviral effect of combination with TDF” value in [1] (TDF 2 mpk q.d. and 11a 100 mpk b.i.d.) was “weak synergistic antiviral effects”. Also, in data set [1] (control vs experimental groups), the “serum ALT and AST levels or body weight” value is listed as “no significant changes”. In addition, the “H&E staining in liver tissues” value in [1] (mouse, in vivo) is reported as “no obvious pathological changes”. The “levels of HBcAg in liver, immunofluorescence” value in data set [1] (mouse, in vivo) was “significantly reduced the levels of HBcAg”. Also, the IC50 in [2] was 100 to 1970 nM; in data set [6] (Hepatitis B virus, read-out: half inhibitory concentration on HBeAg) it was 23700 nM; in data set [7] (Hepatitis B virus), 15200 nM; in [8] (Huh-7, ETV-resistant cells), 13700 nM; in data set [8] (setting [12]), 45700 nM; in data set [9] (Huh-7, read-out: HBeAg IC50) it was 12900 nM. This molecule also returned an IC50 in [9] (Huh-7, wild-type cells) of 750 nM. In addition, in data set [3], the inhibition – broadly, the drop in the measured response relative to a control, in per cent – at 40 µM turned out to be 53%. The “HBsAg and cccDNA” value in data set [4] was “not HBsAg and cccDNA”. For the same molecule, the “secreted HBeAg” value in data set [4] is reported as “inhibits HBeAg in a concentration-dependent manner”. For the same molecule, the half-life (usually how long it takes for the measured level to halve) in data set [5] (both, ICR, mouse, in vivo) lay in the range of 3 to 6.2 h. In [5] (both, ICR, mouse, in vivo, po, 10 mg/kg), the bioavailability (as a rule, dose-corrected exposure relative to a reference, in per cent) lay within 24.8 to 39.2%. The molecule further registered a plasma clearance in data set [5] (po, range over female and male mice) of 202 to 322 mL/min/kg. Also, the “inhibition of HBeAg levels in combination with IFNa2” value in data set [6] (IFNa2 1000 IU/mL plus 11a 10 and 30 μmol/L, HepG2-NTCP) is on record as “significant synergistic inhibition”.
As to `COc1ccccc1/C(Br)=C(\NC(=O)c1ccc([N+](=O)[O-])cc1)C(=O)N1CCCCC1` [AT-130], the IC50 in [10] is 127 nM.
Take `COC(=O)C1=C(C)NC(c2ncc(F)cc2F)=N[C@H]1c1ccc(F)cc1Cl` [Bay 41-4109]: in [10] (anti-HBV potency), the IC50 is 50 nM.
Regarding `C=C1[C@H](CO)[C@@H](O)C[C@@H]1n1cnc2c(=O)[nH]c(N)nc21` [ETV, entecavir, reference compound], the IC50 in data set [8] (setting [12]) is greater than 100000 nM; in data set [9] (Huh-7, read-out: HBeAg IC50) it was greater than 100000 nM.
For the molecule `CCOC(=O)C1=C(CN2CCO[C@H](CCC(=O)O)C2)NC(c2nccs2)=N[C@H]1c1ccc(F)cc1Br` [HEC72702, 3-((R)-4-(((R)-6-(2-Bromo-4-fluorophenyl)-5-(ethoxycarbonyl)-2-(thiazol-2-yl)-3,6-dihydropyrimidin-4-yl)methyl)morpholin-2-yl)propanoic acid], the IC50 in data set [10] was 39 nM.
`C[C@H](NS(=O)(=O)c1cc(C(=O)Nc2ccc(F)c(C#N)c2)n(C)c1)C(F)(F)F` [JNJ-379]: the IC50 in [10] (no reference printed directly) is 69 nM.
`Cc1cc(NC(=O)c2cccc(S(=O)(=O)N[C@H]3CCOC3)c2)ccc1F` [JNJ-632]: in data set [10], the IC50 is 120 nM.
`COC(=O)C1=C(CN2CCOCC2)NC(c2nccs2)=N[C@@H]1c1ccc(F)cc1Br` [NVR-010-001-E2]: the IC50 in data set [10] was 11 nM.
Consider `CCOC(=O)C1=C(CN2CCN3C(=O)N(CC(C)(C)C(=O)O)C[C@@H]3C2)N=C(c2nccs2)N[C@H]1c1cccc(F)c1C` [RG7907, linvencorvir], for which, in data set [10], the IC50 is 6 nM.
For `O=C(NCc1cnc(C(F)(F)F)s1)c1ccc2c(c1)NC(=O)c1ccccc1S2(=O)=O` [vebicorvir], the IC50 in data set [10] was 173 nM.
On to GLS4, for which the IC50 in data set [10] is 12 nM. Besides, the IC50 in [7] (Wide type (pHBV 1.3)) was found to be 252 nM. Besides, in data set [11], the “concentration needed to significantly inhibit HBcAg's expression” value is recorded as “above 10 μmol/L” and the “decrease of HBcAg expression” value was 56.4%.

Source of the values: paper PMC11628845 (Acta Pharmaceutica Sinica. B, 2024).
